Source: US20160000796A1, “PHARMACEUTICAL COMPOSITION FOR USE IN PREVENTION OR TREATMENT OF CANCER” (priority 2013, published 2016)

How the values were obtained:
[1] = tested on: Jurkat (non-HTLV-1-infected cell line); experiment: Cellular proliferation (MTS assay), Jurkat; format: cell-based, human; conditions: 100 μM
Method: (§1) Each nucleoside analogue reverse transcriptase inhibitor was added to the medium for cells at a final concentration of 100 μM. Cells were seeded on a 96-well plate at a concentration of 1×10^4 cells/100 μL/well and cultured for 4 hours (Day 0), 48 hours (Day 2) or 96 hours (Day 4). A medium added DMSO (solvent control) alone was used as a control. Cellular proliferation was examined by MTS assay. Specifically, after the cells were cultured for a predetermined time, a reagent for cellular proliferation test, Aqueous One Solution Cell Proliferation (trade name, manufactured by Promega), was added to the cells. Four hours later, absorbance at 490 nm was measured. The cellular proliferation was represented by a ratio relative to that of the control (solvent control) on Day 0 that was regarded as 1.
(§2) This example used non-HTLV-1-infected cell lines: Jurkat (cell line derived from human T-cell leukemia, ATCC No: TIB-152), Kit225 (cell line derived from chronic T-cell leukemia, established in the laboratory of the inventors, Blood. 1987 October; 70 (4): 1069-72.), H9 (cell line derived from cutaneous T-cell lymphoma, ATCC No: HTB-176) and SUDHL6 (cell line derived from diffuse B cell lymphoma).
(§3) The six types of nucleoside analogue reverse transcriptase inhibitors as used in Example 1 were used and cellular proliferation was examined in the same manner as in Example 1.

[2] = tested on: non-ATL cell line, Jurkat; experiment: PARP inhibitor combination, cellular proliferation (MTS), Jurkat; format: cell-based, human; conditions: abacavir 10, 50 or 100 μM, 48 hours
Method: To an ATL cell line, ED40515 (−), or a non-ATL cell line, Jurkat, abacavir was added at a concentration of 0 μM (DMSO, was added instead of abacavir), 10 μM, 50 μM or 100 μM, and further a PARP inhibitor, olaparib, was added at a concentration of 0 μM (DMSO was added instead of olaparib), 1 μM, 10 μM, 100 μM or 1000 μM. The cells were cultured for 48 hours. MTS assay was performed using a reagent for cellular proliferation test, Aqueous One Solution Cell Proliferation (trade name, manufactured by Promega), in the same manner as in Example 1. The cellular proliferation was represented by a ratio relative to that of the control (solvent control) on Day 0 that was regarded as 1.

[3] = tested on: ATL cell line, ED40515 (−); experiment: Cell-cycle analysis by flow cytometry (PI), ED40515 (−); format: cell-based; conditions: 10 μM or 100 μM, 24 hours
Method: To an ATL cell line, ED40515 (−), or a non-ATL cell line, Jurkat, DMSO (solvent control), adriamycin (ADR, positive control) or abacavir (10 μM or 100 μM) was added.

[4] = tested on: H9 (non-HTLV-1-infected cell line); experiment: Cellular proliferation (MTS assay), H9; format: cell-based; conditions: 100 μM
Method: as §1, §2, §3

[5] = tested on: DT40-derived mutants each lacking a DNA repair enzyme; experiment: Cellular proliferation of DT40-derived mutants (CellTiter-Glo ATP method); format: cell-based, chicken; conditions: 25 μM, 48 hours
From the text: This example used wild-type DT40, which is a chicken B cell-derived cell line, and DT40-devired mutants each lacking a DNA repair enzyme. Those cell lines are available from the laboratory of Radiation Genetics, Graduate School of Medicine and Faculty of Medicine Kyoto University (see, Literatures: (1) Mol Cell Biol. 2001 April; 21 (8): 2858-66. (2) PLoS Genet. 2011 July; 7 (7): e1002148. (3) Mol Cell Biol. 2008 October; 28 (19): 6113-22. (4) J Biol Chem. 2012 Apr. 13; 287 (16): 12848-57.).
Abacavir was added to the medium of each cell line at a final concentration of 25 μM. The cells were seeded on a 96-well plate at a concentration of 1×10^4 cells/100 μL/well and cultured for 48 hours. After the culture, cellular proliferation was determined by CellTiter-Glo Luminescent Cell Viability Assay (trade name, manufactured by Promega) in accordance with the ATP method.
Specifically, the value on the vertical axis is −1 when the proliferation rate compared to the wild-type is 50%, and −2 when the proliferation rate compared to the wild-type is 25%.

[6] = tested on: HTLV-1-producing cell line, HUT102 (derived from ATL); experiment: Cellular proliferation test (MTS assay), HUT102; format: cell-based
Method: HTLV-1-producing cell lines, MT2 (transformant with HTLV-1, JCRB cell No: JCRB1210) and HUT102 (ATL-derived cell line, ATCC No: TIB-162), were used.
as §1
Abacavir was added to MT2 and HUT102 used in Example 1 at a concentration of 0 μM (DMSO was added instead of abacavir), 10 μM, 25 μM, 50 μM, 75 μM or 100 μM. The cells were seeded on a 96-well plate at a concentration of 1×10^4 cells/100 μL/well and cultured for 4 hours or 48 hours. […]

[7] = tested on: ATL cell line, ED40515 (−); experiment: Apoptosis (annexin V flow cytometry), ED40515 (−); format: cell-based; conditions: 100 μM, 24 or 48 hours
Method: DMSO (solvent control), adriamycin (ADR, positive control), or abacavir (100 μM) was added to an ATL cell line, ED40515 (−). The cells were cultured for 24 hours or 48 hours. After the culture of a predetermined time, the cells were stained with annexin V, and annexin V positive cells were measured by flow cytometry. The annexin V positive cells were determined as apoptotic cells.

Nc1nc(NC2CC2)c2ncn([C@H]3C=C[C@@H](CO)C3)c2n1 [abacavir, (−)-(1S,4R)-4-[2-amino-6-(cyclopropylamino)-9H-purin-9-yl]-2-cyclopentene-1-methanol]
cellular proliferation [1]: did not exhibit a suppressive effect
cellular proliferation [2]: did not suppress cellular proliferation
cell cycle (ratio of cells in G0G1/S/G2 phase) [3]: induced the S/G2 arrest
cellular proliferation [4]: did not exhibit a suppressive effect
cellular proliferation relative to wild-type DT40 (Log2 Gene/WT) ([5]; DT40 mutant lacking BRCA1): showed a suppressive effect
cellular proliferation relative to wild-type DT40 (Log2 Gene/WT) ([5]; DT40 mutant lacking GEN1): showed a suppressive effect
cellular proliferation relative to wild-type DT40 (Log2 Gene/WT) ([5]; DT40 mutant lacking PCNA): showed a suppressive effect
cellular proliferation relative to wild-type DT40 (Log2 Gene/WT) ([5]; DT40 mutant lacking TDP1): showed a suppressive effect
cellular proliferation relative to wild-type DT40 (Log2 Gene/WT) ([5]; DT40 mutant lacking XRCC2): showed a suppressive effect
cellular proliferation (ratio relative to solvent control on Day 0) ([6]; 100 μM, Day 0, 2, 4, compared among six NRTIs): most strongly suppressed
cellular proliferation, dose dependence ([6]; 10, 25, 50, 75, 100 μM, 48 hours): suppressed cellular proliferation of both cell lines in a dose-dependent manner
apoptosis (annexin V positive cells) [7]: induced apoptosis
